Source: ChEMBL document CHEMBL5696442, “Discovery of type II inhibitors of TGFβ-activated kinase 1 (TAK1) and mitogen-activated protein kinase kinase kinase kinase 2 (MAP4K2)” (J Med Chem, 2015)
Active and inactive are the calls of the source. No cut-off for these calls is given here.

Assays:
[1] = target: Microtubule-associated serine/threonine-protein kinase 1 (Homo sapiens) (UniProt Q9Y2H9); assay: Inhibition of MAST1 Lys2 labeling site in human Huh-7 cell lysate at 1 uM by KiNativ Profiling analysis relative to control
Sequence of Microtubule-associated serine/threonine-protein kinase 1 (Homo sapiens) (Q9Y2H9 whole entry, looked up): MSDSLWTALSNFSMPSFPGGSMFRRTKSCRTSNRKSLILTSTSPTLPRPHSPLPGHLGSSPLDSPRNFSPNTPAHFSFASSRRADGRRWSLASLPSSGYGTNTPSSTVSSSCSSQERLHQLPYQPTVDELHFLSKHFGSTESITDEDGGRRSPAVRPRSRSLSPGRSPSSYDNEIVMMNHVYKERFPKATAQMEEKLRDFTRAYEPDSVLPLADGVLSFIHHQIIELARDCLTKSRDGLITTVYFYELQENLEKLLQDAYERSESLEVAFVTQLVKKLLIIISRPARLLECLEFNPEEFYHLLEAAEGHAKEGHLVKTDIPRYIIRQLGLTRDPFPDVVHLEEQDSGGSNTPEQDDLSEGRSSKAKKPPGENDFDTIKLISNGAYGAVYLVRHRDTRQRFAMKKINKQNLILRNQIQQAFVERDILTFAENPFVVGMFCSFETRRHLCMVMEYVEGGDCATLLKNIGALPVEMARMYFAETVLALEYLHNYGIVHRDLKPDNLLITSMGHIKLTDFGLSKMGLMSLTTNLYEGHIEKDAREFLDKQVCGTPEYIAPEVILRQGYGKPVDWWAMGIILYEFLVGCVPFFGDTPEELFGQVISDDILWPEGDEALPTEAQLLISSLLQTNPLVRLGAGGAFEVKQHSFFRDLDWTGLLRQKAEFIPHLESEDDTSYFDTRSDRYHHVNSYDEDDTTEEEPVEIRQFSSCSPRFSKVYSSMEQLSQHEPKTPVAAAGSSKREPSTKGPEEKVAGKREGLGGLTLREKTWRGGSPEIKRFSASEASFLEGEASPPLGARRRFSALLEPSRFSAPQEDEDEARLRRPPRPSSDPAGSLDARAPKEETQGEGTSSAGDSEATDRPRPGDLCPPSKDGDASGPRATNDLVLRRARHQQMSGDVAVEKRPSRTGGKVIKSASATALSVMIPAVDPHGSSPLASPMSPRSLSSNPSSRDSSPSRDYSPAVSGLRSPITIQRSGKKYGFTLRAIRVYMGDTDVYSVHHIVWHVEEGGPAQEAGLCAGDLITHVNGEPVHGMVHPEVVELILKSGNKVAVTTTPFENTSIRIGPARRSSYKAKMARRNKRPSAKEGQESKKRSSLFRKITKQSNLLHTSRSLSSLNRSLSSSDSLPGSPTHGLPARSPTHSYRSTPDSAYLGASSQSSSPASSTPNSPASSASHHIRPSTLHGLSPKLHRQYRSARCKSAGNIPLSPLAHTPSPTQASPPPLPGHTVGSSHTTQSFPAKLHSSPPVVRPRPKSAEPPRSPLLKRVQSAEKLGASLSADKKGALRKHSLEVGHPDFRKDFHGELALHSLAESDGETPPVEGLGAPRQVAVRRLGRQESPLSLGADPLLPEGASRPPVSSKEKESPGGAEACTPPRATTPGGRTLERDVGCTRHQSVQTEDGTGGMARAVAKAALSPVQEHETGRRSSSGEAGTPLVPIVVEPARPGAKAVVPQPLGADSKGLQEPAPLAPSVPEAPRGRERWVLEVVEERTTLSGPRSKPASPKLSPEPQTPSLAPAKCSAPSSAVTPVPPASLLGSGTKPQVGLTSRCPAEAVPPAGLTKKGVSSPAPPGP

[2] = target: Tyrosine-protein kinase Yes (Homo sapiens) (UniProt P07947); assay: Inhibition of YES ACT labeling site in human Huh-7 cell lysate at 1 uM by KiNativ Profiling analysis relative to control; type: subcellular
Sequence of Tyrosine-protein kinase Yes (Homo sapiens) (P07947 2-543 limits assumed): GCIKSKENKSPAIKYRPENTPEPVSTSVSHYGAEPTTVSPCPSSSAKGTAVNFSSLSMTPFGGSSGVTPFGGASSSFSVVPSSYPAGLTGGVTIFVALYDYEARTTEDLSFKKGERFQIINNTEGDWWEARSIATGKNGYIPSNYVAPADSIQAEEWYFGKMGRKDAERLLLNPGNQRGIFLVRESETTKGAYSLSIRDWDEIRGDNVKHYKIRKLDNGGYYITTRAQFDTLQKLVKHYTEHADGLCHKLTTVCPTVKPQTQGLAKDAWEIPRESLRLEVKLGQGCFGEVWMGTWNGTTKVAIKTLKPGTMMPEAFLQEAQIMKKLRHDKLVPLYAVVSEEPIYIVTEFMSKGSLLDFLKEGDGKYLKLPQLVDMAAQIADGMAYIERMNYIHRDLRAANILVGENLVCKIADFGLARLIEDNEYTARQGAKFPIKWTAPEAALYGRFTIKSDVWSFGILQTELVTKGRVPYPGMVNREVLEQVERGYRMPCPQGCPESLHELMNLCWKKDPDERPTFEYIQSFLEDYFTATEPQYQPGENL

[3] = target: T1, Dual specificity mitogen-activated protein kinase kinase 6 (Homo sapiens) (UniProt P52564); assay: Inhibition of MAP2K6 Lys2 labeling site in human Huh-7 cells at 1 uM by KiNativ Profiling analysis relative to control; type: cell-based
T1 sequence (whole entry): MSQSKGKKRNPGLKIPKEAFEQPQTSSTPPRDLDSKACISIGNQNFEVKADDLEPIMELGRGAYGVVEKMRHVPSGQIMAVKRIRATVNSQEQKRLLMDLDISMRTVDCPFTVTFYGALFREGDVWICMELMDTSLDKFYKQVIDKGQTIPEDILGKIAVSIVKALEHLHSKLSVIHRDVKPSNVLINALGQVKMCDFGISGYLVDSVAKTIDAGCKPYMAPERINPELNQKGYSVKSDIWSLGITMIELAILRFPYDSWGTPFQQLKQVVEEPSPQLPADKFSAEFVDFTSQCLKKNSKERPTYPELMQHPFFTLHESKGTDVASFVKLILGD

[4] = target: T2, Mitogen-activated protein kinase kinase kinase 2 (Homo sapiens) (UniProt Q9Y2U5); assay: Inhibition of MAP3K2 Lys1 labeling site in human Huh-7 cells at 1 uM by KiNativ Profiling analysis relative to control; type: cell-based
T2 sequence (whole entry): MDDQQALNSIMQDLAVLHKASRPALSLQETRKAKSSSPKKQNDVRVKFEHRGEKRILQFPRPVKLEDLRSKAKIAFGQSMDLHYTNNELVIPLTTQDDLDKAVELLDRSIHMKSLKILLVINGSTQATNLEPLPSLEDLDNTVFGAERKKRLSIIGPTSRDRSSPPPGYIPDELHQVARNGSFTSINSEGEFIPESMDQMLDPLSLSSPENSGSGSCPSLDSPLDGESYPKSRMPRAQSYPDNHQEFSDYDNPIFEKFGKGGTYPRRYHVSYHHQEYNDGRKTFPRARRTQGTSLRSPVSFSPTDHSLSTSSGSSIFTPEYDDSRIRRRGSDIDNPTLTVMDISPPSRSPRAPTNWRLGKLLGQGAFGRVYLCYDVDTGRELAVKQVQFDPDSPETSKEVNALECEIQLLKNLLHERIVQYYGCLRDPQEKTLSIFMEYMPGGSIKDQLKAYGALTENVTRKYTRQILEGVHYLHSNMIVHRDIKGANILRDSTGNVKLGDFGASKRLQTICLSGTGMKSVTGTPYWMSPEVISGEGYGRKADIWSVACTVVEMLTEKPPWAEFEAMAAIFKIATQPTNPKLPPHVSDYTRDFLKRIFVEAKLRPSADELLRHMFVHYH

[5] = target: Atypical kinase COQ8B, mitochondrial (Homo sapiens) (UniProt Q96D53); assay: Inhibition of ADCK4 (unknown origin) at 10 uM by Ambit Kinomescan binding assay
[6] = target: NT-3 growth factor receptor (Homo sapiens) (UniProt Q16288); assay: Inhibition of TRKC (unknown origin) at 10 uM by Ambit Kinomescan binding assay relative to control; values are per cent of control
Sequence of NT-3 growth factor receptor (Homo sapiens) (Q16288 32-839 limits assumed): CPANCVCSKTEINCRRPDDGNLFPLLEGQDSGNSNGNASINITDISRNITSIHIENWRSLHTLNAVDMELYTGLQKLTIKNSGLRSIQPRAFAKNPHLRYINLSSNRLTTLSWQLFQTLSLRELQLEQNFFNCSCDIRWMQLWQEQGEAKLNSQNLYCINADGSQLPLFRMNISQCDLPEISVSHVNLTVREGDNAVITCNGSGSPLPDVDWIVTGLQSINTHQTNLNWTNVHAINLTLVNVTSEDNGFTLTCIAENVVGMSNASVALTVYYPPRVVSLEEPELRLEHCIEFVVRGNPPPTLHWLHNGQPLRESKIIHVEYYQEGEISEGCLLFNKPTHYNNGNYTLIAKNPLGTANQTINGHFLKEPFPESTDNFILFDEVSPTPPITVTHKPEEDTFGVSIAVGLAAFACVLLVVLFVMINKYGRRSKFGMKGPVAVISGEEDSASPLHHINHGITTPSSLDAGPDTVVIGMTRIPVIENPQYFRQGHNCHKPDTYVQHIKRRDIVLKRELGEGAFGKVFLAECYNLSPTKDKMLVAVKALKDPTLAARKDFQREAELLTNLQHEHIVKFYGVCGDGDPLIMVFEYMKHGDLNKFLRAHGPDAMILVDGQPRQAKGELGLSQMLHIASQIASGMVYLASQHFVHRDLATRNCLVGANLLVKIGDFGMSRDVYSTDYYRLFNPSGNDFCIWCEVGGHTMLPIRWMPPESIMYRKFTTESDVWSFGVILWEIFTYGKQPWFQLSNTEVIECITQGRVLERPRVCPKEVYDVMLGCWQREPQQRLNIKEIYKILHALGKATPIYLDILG

[7] = tested on: Tyrosine-protein kinase ABL1 (Homo sapiens), P00519 [H396P]; assay: Inhibition of ABL1 H396P mutant (unknown origin) at 10 uM by Ambit Kinomescan binding assay relative to control
[8] = Inhibition of MARK2/3 K2 labeling site in human Huh-7 cells at 1 uM by KiNativ Profiling analysis relative to control; conditions: condition cancer
[9] = target: Serine/threonine-protein kinase 17A (Homo sapiens) (UniProt Q9UEE5); assay: Inhibition of DRAK1 (unknown origin) at 10 uM by Ambit Kinomescan binding assay
[10] = target: Casein kinase I isoform delta (Homo sapiens) (UniProt P48730); assay: Inhibition of CK1 delta K2 labeling site in human Huh-7 cells at 10 uM by KiNativ Profiling analysis relative to control; type: cell-based
[11] = target: T3, DNA-PK/Ku70/Ku85 (Homo sapiens) (UniProt P78527+P12956+P13010); assay: Inhibition of DNAPK ATP labeling site harbouring KGGSWIQEINVAEKNWYPR in human A-375 cells at 0.5 uM by KiNativ Profiling analysis relative to control; type: cell-based
[12] = target: Fibroblast growth factor receptor 3 (Homo sapiens) (UniProt P22607); assay: Inhibition of FGFR3 (unknown origin) at 10 uM by Ambit Kinomescan binding assay relative to control
[13] = target: SRSF protein kinase 3 (Homo sapiens) (UniProt Q9UPE1); assay: Inhibition of SRPK3 (unknown origin) at 1 uM by Ambit Kinomescan binding assay relative to control
[14] = target: Wee1-like protein kinase (Homo sapiens) (UniProt P30291); assay: Inhibition of WEE1 (unknown origin) at 1 uM by Ambit Kinomescan binding assay relative to control
Sequence of Wee1-like protein kinase (Homo sapiens) (P30291 whole entry, looked up): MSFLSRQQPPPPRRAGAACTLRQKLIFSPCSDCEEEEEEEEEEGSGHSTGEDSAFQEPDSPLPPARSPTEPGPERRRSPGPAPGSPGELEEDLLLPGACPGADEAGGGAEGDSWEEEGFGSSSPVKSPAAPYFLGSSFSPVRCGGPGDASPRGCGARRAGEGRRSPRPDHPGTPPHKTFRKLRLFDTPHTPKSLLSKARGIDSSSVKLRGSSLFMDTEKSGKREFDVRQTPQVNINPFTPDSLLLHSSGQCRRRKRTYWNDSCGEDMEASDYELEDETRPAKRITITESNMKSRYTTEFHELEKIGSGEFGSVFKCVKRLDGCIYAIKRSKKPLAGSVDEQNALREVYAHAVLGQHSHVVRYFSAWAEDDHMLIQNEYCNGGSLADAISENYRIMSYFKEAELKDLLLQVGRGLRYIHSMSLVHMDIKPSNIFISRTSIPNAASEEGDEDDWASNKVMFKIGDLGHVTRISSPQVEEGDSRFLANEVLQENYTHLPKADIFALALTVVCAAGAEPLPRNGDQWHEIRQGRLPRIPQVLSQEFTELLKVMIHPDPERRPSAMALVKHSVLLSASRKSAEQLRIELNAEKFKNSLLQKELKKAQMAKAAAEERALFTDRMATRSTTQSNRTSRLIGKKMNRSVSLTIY

[15] = target: Cyclin-dependent kinase 4/cyclin D1 (Homo sapiens) (UniProt P11802+P24385); assay: Inhibition of CDK4/cyclinD1 (unknown origin) at 1 uM by Ambit Kinomescan binding assay relative to control; values are per cent of control
[16] = target: T3, DNA-PK/Ku70/Ku85 (Homo sapiens); assay: Inhibition of DNAPK ATP labeling site harbouring GHDEREHPFLVKGGEDLRQDQR in human A-375 cells at 0.05 uM by KiNativ Profiling analysis relative to control; type: cell-based
[17] = target: Serine/threonine-protein kinase TNNI3K (Homo sapiens) (UniProt Q59H18); assay: Inhibition of TNNI3K (unknown origin) at 1 uM by Ambit Kinomescan binding assay relative to control
Sequence of Serine/threonine-protein kinase TNNI3K (Homo sapiens) (Q59H18 whole entry): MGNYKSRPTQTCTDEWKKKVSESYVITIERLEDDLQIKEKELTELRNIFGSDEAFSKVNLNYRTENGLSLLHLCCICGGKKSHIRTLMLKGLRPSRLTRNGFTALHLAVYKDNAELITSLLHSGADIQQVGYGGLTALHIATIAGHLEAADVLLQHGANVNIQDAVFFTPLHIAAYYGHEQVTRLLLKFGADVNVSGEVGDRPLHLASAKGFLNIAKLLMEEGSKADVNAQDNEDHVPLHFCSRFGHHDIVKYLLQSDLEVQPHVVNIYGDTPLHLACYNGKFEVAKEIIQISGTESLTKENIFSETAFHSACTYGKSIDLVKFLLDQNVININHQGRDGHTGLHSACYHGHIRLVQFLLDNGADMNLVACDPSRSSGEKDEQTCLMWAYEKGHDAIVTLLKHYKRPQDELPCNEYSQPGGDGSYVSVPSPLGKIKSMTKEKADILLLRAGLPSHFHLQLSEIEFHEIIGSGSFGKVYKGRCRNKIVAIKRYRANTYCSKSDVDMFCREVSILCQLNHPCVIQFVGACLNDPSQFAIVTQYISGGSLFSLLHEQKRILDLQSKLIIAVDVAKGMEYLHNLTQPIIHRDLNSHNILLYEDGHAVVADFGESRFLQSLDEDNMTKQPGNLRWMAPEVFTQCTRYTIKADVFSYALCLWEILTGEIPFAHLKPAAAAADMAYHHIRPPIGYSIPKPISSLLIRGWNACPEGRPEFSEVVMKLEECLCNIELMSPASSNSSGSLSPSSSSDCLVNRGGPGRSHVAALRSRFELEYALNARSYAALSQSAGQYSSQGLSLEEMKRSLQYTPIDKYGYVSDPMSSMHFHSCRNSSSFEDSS

[18] = target: Protein-tyrosine kinase 6 (Homo sapiens) (UniProt Q13882); assay: Inhibition of BRK (unknown origin) at 1 uM by Ambit Kinomescan binding assay relative to control; values are per cent of control
Sequence of Protein-tyrosine kinase 6 (Homo sapiens) (Q13882 whole entry, looked up): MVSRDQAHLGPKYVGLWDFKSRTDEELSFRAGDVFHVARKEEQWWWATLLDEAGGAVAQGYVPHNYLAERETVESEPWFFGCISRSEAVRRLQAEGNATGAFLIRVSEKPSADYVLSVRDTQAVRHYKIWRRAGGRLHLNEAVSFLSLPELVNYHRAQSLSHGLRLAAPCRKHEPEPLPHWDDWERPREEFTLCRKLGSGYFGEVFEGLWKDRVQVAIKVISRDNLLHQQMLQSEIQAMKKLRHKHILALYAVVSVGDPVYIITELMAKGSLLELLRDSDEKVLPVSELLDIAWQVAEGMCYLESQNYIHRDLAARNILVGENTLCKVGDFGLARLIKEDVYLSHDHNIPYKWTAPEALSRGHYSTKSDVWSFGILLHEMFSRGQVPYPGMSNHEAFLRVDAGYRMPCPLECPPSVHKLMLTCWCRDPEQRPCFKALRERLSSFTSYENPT

Q: What does the source list for `CNc1cc(Oc2cc(C(=O)Nc3cc(N4CCN(C)CC4)cc(C(F)(F)F)c3)ccc2C)ncn1`?
A: inhibition [1]: 7.2%; inhibition [2]: 22%; inhibition [3]: -1.5%; inhibition [4]: 28.2%

Q: Which inhibition [5] does the source give for `CCN1CCN(Cc2ccc(NC(=O)c3ccc(C)c(Oc4ccnc5[nH]ccc45)c3)cc2C(F)(F)F)CC1` here?
A: inactive

Q: What about the residual activity [6] of the same compound?
A: 3.8%

Q: And the inhibition [7]?
A: 0.7%

Q: What about the inhibition at 1 µM [8] of the same compound?
A: -5.3%

Q: What about the inhibition [9] of the same compound?
A: inactive

Q: What about the inhibition [10] of the same compound?
A: 7.8%

Q: What about the inhibition [11] of the same compound?
A: 13.7%

Q: What about the inhibition [12] of the same compound?
A: 9.4%

Q: Which results are given for `CCN1CCN(Cc2ccc(NC(=O)c3ccc(C)c(/C=C/c4cnc5[nH]ccc5c4OC)c3)cc2C(F)(F)F)CC1`?
A: inhibition [13]: 37%; inhibition [14]: 100%; percent of control [15]: 100%; inhibition [16]: -9.6%; inhibition [17]: 5.9%; residual activity [18]: 64%
